In brackets after ≈: the same amount, converted by molar mass. Where two headings read alike, the source gives them in different places.
How the values were obtained:
[1] = tested on: advanced glycation end-product (AGE) formation in BSA/MGO system; test: Inhibition of AGE formation in BSA-MGO system (fluorescence); assay type: biochemical, bovine; settings: BSA 1 mg/mL, 7 mM MGO, 60 °C, 2 days, mean ± SD, n = 3; for IC50: isolated compounds
Method: The inhibitory effect on protein glycation induced by MGO (40% aqueous solution) and the main reactive intermediate compound formed in Maillard reaction were evaluated. All test samples were dissolved in 10% DMSO. […] This mixture was incubated at 60 °C for 2 days. […] We used AG as a positive control. Three replicate samples were run for each set. The inhibitory activity was calculated using the same equation applied in BSA-glucose assay.

[2] = target: T1, α-glucosidase from Saccharomyces cerevisiae (Saccharomyces cerevisiae, UniProt P53341); test: biochemical; assay type: biochemical
T1 construct: purchased Sigma-Aldrich Chemical Company (St. Louis, MO, USA)
T1 sequence (P53341 whole entry): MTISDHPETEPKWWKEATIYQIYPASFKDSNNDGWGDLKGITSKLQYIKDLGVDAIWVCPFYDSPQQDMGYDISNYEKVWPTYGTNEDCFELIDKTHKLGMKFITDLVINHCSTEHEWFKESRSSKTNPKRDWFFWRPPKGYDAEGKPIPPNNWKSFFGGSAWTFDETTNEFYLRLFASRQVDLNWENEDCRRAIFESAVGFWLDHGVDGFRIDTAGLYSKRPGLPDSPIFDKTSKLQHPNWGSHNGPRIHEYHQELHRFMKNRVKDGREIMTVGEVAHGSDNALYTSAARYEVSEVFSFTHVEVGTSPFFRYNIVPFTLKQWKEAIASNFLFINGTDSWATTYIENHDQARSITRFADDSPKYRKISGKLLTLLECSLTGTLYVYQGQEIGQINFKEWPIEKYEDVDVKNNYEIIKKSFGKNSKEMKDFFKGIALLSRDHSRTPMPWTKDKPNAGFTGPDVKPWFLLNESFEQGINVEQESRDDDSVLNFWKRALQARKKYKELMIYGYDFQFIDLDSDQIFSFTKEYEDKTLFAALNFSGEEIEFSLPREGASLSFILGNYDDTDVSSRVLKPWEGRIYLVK
Method: Methanol (MeOH), ethanol (EtOH), Hx, DCM, EA, BuOH, and distilled water were used for extraction, fractionation, and open column chromatography. Sephadex LH-20 (25–100 μm; Pharmacia, Stockolm, Sweden), MCI CHP 20P (Supelco, St. Louis, MO, USA), and ODS gel (400–500 mesh; Waters, Milford, MA, USA) were used for open column chromatography. Dimethyl sulfoxide-d6 (DMSO-d6) and methanol-d4 (CD3OD) were used as solvents for NMR analysis. Molecular weight was determined by using ultrahigh performance liquid chromatography and high-resolution mass spectrometry (UHPLC-HRMS) coupled with electrospray ionization hybrid linear trap-quadruple-Orbitrap MS (ESI/LTQ-Orbitrap) using an Ultimate 3000 RSLC (Thermo, Darmstadt, Germany). ^1H-nuclear magnetic resonance (NMR) spectra were recorded at 600 MHz and ^13C-NMR spectra were recorded at 150 MHz on a JEOL spectrometer. The chemical shifts are expressed in parts per million (ppm) on the δ scale and as coupling constants (J) in Hertz. […] A Waters Kromasil C18 (4.6 × 250 mm, 5 μm) column was used as the separation column. HPLC-grade solvents, such as MeOH and distilled water (H2O), were purchased from J. T. Baker® (Phillipsburg, PA, USA). HPLC-grade phosphoric acid was obtained from DEAJUNG Chemical (Siheung, Gyeonggi, Korea).
This assay was performed using a 96-well microplate reader and a spectrophotometer. […] A chromogenic substance was used for quantification purposes. After the addition of mixture solution to each well, 10 mM phosphate buffer (20 µL, pH 6.8) containing 0.2 U/mL α-glucosidase was added. This mixture was incubated at 37 °C for 15 min. The reaction was stopped by adding 80 µL of 0.2 mol/L sodium carbonate solution. […] Three replicate samples were run for each set. The inhibitory activity was calculated using the equation applied in BSA-glucose assay, but absorbance was measured instead of fluorescence.

[3] = tested on: advanced glycation end-product (AGE) formation in BSA/glucose system; test: Inhibition of AGE formation in BSA-glucose system (fluorescence); assay type: biochemical, bovine
Method: Inhibition of AGE formation in BSA-glucose system was determined using the spectrophotometric method described previously. All test samples were dissolved in 10% DMSO. […] This mixture was incubated at 60 °C for 2 days. […] We used AG as a positive control. Three replicate samples were run for each set. The inhibitory activity on AGE formation was calculated using the following formula: {(Ac − As)/Ac} × 100, where Ac is fluorescence of the control, and As is the fluorescence of the sample.

[4] = isolated compounds, 2.5 mM p-NPG, pH 6.8, 37 °C, 15 min, mean ± SD, n = 3, read-out: IC50 α-Glucosidase
[5] = isolated compounds, read-out: IC50 α-glucosidase activity
[6] = isolated compounds, BSA 10 mg/mL, 0.4 M D-fructose and D-glucose, 60 °C, 2 days, mean ± SD, n = 3, read-out: IC50 BSA/Glucose (AGE formation)
[7] = isolated compounds, 2.5 mM p-NPG, pH 6.8, 37 °C, 15 min, mean ± SD, n = 3

IC50 [1] [µM]	IC50 [3, 6] [µM]	Compound	also measured
66.1 ± 17.1	236 ± 9.11	O=c1cc(-c2ccc(O)c(O)c2)oc2cc(O)cc(O)c12 [Compound 1, luteolin]	IC50 α-Glucosidase [2, 7]: no inhibitory activity
90.8 ± 21.7	423 ± 18	O=c1cc(-c2ccc(OC3OC(CO)C(O)C(O)C3O)c(O)c2)oc2cc(O)cc(O)c12 (stereo not drawn) [Compound 3, luteolin-4′-glucoside]	IC50 [2, 5]: 598 ± 147 µM; IC50 ([3]; compound 3, unit as printed in running text b17, read-out: IC50 AGE formation in BSA-glucose system): 423 ± 18 µM
136 ± 2.64	253	CC1OC(OCC2OC(Oc3cc(O)c4c(=O)cc(-c5ccc(O)c(O)c5)oc4c3)C(O)C(O)C2O)C(O)C(O)C1O (stereo not drawn) [Compound 4, luteolin-7-rutinoside]	IC50 [2, 5]: 671 ± 50.8 µM
130 ± 28.3	268 ± 3.41	O=c1cc(-c2cc(O)c(O)cc2OC2OCC(O)C(O)C2O)oc2cc(OC3OC(CO)C(O)C(O)C3O)cc(O)c12 (stereo not drawn) [Compound 5, isoetin-7-glucoside-2′-xyloside]	IC50 α-Glucosidase [2, 7]: no inhibitory activity
148 ± 36.3	238 ± 13.8	O=c1cc(-c2cc(O)c(O)cc2OC2OCC(O)C(O)C2O)oc2cc(OC3OC(CO)C(O)C(O)C3O)cc(O)c12 (stereo not drawn) [Compound 6, isoetin-7-glucoside-2′-arabinoside]	IC50 α-Glucosidase [2, 7]: no inhibitory activity
79.7 ± 23.4	324 ± 8.29	O=C(O)/C=C/c1ccc(O)c(O)c1 [Compound 7, caffeic acid]	IC50 [2, 4]: 5130 ± 804 µM

Compound	IC50 [1] [µM]	IC50 [3, 6] [µM]	also measured
1-caffeoylglycerol [Compound 8]	152 ± 65.4	307 ± 10.2	IC50 [2, 4]: 2951 ± 3.94 µM; IC50 [2, 5]: 2951 ± 3.94 µM
N=C(N)NN [AMG, aminoguanidine, reference compound]	295 ± 42.7	602 ± 50.4	IC50 BSA/MGO (AGE formation) ([1]; extracts and fractions): 67.51 ± 5.27 µg/mL (≈ 911 µM); IC50 BSA/Glucose (AGE formation) ([3]; extracts and fractions, BSA 10 mg/mL, 0.4 M D-fructose and D-glucose, 60 °C, 2 days, mean ± SD, n = 3): 218.57 ± 24.38 µg/mL (≈ 2950 µM)
O=c1cc(-c2ccc(O)c(O)c2)oc2cc(OC3OC(CO)C(O)C(O)C3O)cc(O)c12 (stereo not drawn) [Compound 2, luteolin-7-glucoside]	108 ± 8.14	123 ± 2.02	IC50 [2]: 1460 ± 162 µM
O=C(/C=C/c1ccc(O)c(O)c1)O[C@@H]1C[C@](O)(C(=O)O)C[C@@H](O)[C@H]1O [Compound 10, chlorogenic acid]	138 ± 1.91		
chicoric acid [Compound 11]	141 ± 8.76	64.7 ± 16.7	
